Reference: patent US20020165197A1, “Modulation of GSK-3beta activity and its different uses” (priority 2001, published 2002)

How the values were obtained:
GSK-3β = experiment: Western blot of GSK-3β (total and phosphorylated) in B16-F10 melanoma cell extracts; format: cell-based
Method: (§1) Cells (B16-F10 melanoma cells) were maintained in RPMI medium supplemented with 10% […], 200 mM glutamine, 100 U/ml penicillin and 100 μg/ml streptomycin. They were transferred to a freshly prepared medium twice weekly. For all studies we used serum starved cells. FBS was omitted from the cultures for 18 hours and the experiment was carried out on monolayers of cells in RPMI medium supplemented with 1% FBS in a 37° C., 5% CO2 incubator.
(§2) To detect the level of expression of PKA, GSK-3β (total and phosphorylated), PKB/Akt (total and phosphorylated), β-catenin, c-myc and cyclin D1, protein extract from IB-MECA treated or untreated serum-starved B16-F10 melanoma cells were utilized. […] Further, to mimic the chain of events occurring upon activation of A2R, cells were incubated with 8Br cAMP.
(§3) At the end of the incubation period, cells were rinsed with ice-cold PBS and lysed in ice-cold lysis buffer (TNN buffer, 50 mM tis buffer pH=7.5, 150 mM NaCl, NP 40). Cell debris was removed by centrifugation at 7500×g for 10 min. Supernatant was utilized for Western Blot analysis. Protein concentrations were determined using the Bio-Rad protein assay dye reagent. […] Bands were recorded using BCIP/NBT color development kit (Promega, Madison, Wis., USA). […]

HIV-1 JR-FL = experiment: p24 ELISA, HIV replication in JR-FL infected astroglial cells; format: cell-based; settings: Astroglia/JR-FL, 0.01 (μM, every 24 hours); HIV control 22.83
Method: (§4) Purified primary human fetal astrocytes and microgial cells were prepared from 16 to 20 week old human fetal brain tissue by a modified procedure based on the methods of Cole and de Vellis [R. Cole and J. de Vellis. In: Protocols for neural cell cure. S. Fedoroff and A. Richardson (Eds.) Human Press, Totowa, N.J., pp. is 117-130. (1997)], and Yong and Antel [V. W. Yong and J. P. Antel. In: Protocols for neural cell culture. S. Fedoroff and A. Richardson (Eds.) Humana Press, Totowa, N.J., pp. 157-172 (1997)]. Brain tissue was washed in ice-cold Hank's Balanced Salt Solution (HBSS) containing the antibiotics gentamycin and arnphotericin B. Blood vessels and meninges were removed and the tissue was minced into small pieces. After mincing, the tissue was enzymatically dissociated by incubation in 0.05% trypsin and mechanically disrupted by passing several times over a 75 μm nylon mesh filter. […]
(§5) Brain derived primary HIV-1 isolates SF162 and JR-FL were cultured in human peripheral blood mononuclear cells (PBMC) essentially as described by Gartner and Popovic^12. […] After stimulation, cells were infected with either SF162 or JR-FL and cultured for 7 to 10 days until high titres of MIV-1 were detected in the supernatant by p24 ELISA assay. […]

hair growth = experiment: Hair growth in nude mice inoculated with HCT-116 colon carcinoma cells; format: in vivo, Nude mice (BalbC origin); settings: 6 μg/kg body weight orally daily, 30 days
Method: Nude mice (BalbC origin) were subcutaneously inoculated with HCT16 human colon carcinoma cells, which thus developed a visible tumor.
Cl-IB-MECA was dissolved in DMSO and kept as a stock solution. in a concentration of 10 mM. Before administration to the mice, the stock solution was diluted with PBS to a concentration so that each mice received a dosage of 6 μg/kg body weight.
Nude mice (BalbC origin) were subcutaneously inoculated wit HCT-16 human colon carcinoma cells. These mice were divided into two groups:
Study group which was daily and orally administered with Cl-IB-MECA (6 μg/kg body weight) dissolved in DMSO and diluted with PBS.
Control group which was daily and orally administered with DMSO only.

c-myc = experiment: Western blot of tumor tissue from HCT-116 colon carcinoma bearing mice: c-myc; format: in vivo, Balb/C nude mice; settings: 6 μg/Kg orally every second day, 30 days
β-catenin = experiment: Western blot of tumor tissue from HCT-116 colon carcinoma bearing mice: β-catenin; format: in vivo, Balb/C nude mice; settings: 6 μg/Kg orally every second day, 30 days
Method: (§6) A similar series of studies was utilized in a colon carcinoma murine animal model to determine whether elements of the Wnt pathway altered by IB-MECA in vitro, occur as well in viro with Cl-B-MECA (another A3RAg). The animal model was generated by subcutaneous injection of 1.2×10^6HCT-116 human colon carcinoma cells to the flank of Balb/C nude mice. The mice were treated orally (by gavage), every second day with 6 μg/Kg Cl-IB-MECA.
(§7) After 30 days the mice were sacrificed and tissue samples from the colon carcinoma foci were harvested and analyzed for the expression of β-catenin and cyclin D1.

HIV-1 SF162 = experiment: p24 ELISA, HIV replication in SF162 infected astroglia; format: cell-based; settings: Astroglia/SF-162, 0.01 (μM); HIV control 313.38
Method: as §4, §5

HIV-1 SF126 = experiment: p24 ELISA, HIV replication in SF infected microglia; format: cell-based
Method: Purified primary human fetal astrocytes and microgial cells were prepared from 16 to 20 week old human fetal brain tissue by a modified procedure based on the methods of Cole and de Vellis [R. Cole and J. de Vellis. In: Protocols for neural cell cure. S. Fedoroff and A. Richardson (Eds.) Human Press, Totowa, N.J., pp. is 117-130. (1997)], and Yong and Antel [V. W. Yong and J. P. Antel. In: Protocols for neural cell culture. S. Fedoroff and A. Richardson (Eds.) Humana Press, Totowa, N.J., pp. 157-172 (1997)]. Brain tissue was washed in ice-cold Hank's Balanced Salt Solution (HBSS) containing the antibiotics gentamycin and arnphotericin B. Blood vessels and meninges were removed and the tissue was minced into small pieces. After mincing, the tissue was enzymatically dissociated by incubation in 0.05% trypsin and mechanically disrupted by passing several times over a 75 μm nylon mesh filter. The resulting single cell suspension was washed, pelleted and plated at a density of 2-10×10^6 cells per 162 cm^2 flask in DMEM:F12 containing 10% fetal calf […], gentamycin, and L-glutamine. After 7-10 days of growth, microglial cells were isolated by placement on rotary shaker at 200 rpm in a 37° C. incubator overnight. The non-adherent cells were removed and allowed to attach to a new flask for 1 to 3 h. Following attachment, the cells were washed and refed with media containing 10% fetal calf serum, insulin, gentamycin, L-gluntamine, and N1 supplement. Astocyes were subeultured from adherent cells in media containing 15% fetal calf serum, insulin, gentamycin, and L-glutamine and contaminating microglia were removed by repeated rotary shaking. Cultured astrocytic and nicroglial cells were plated at a density of 2.5×10^5 per well into 6 well plates for subseqent infection.
Brain derived primary HIV-1 isolates SF162 and JR-FL were cultured in human peripheral blood mononuclear cells (PBMC) essentially as described by Gartner and Popovic^12. PBMC were isolated from human buffy coat by ficoll gradient and plated at a density of 2.5×10^6 per ml in RPMI containing 10% fetal calf serum and gentamycin. Cells were stimulated by the addition of 5 μg/ml of phytohemagglutinin (PHA) for 48 h. After stimulation, cells were infected with either SF162 or JR-FL and cultured for 7 to 10 days until high titres of MIV-1 were detected in the supernatant by p24 ELISA assay. When viral production was optimal, the cells were pelleted, the supernatant containing HIV-1 was aliquoted and stored at −70° C. until use. P24 ELISA assay was performed on an aliquot of stock to determine the viral titre.
Microglial or astrocytic cells (2.5×10^5) were plated per well into 6-well plates. The next day, cells were washed and refed with fresh medium. […]

cyclin D1 = experiment: Western blot of tumor tissue from HCT-116 colon carcinoma bearing mice: cyclin D1; format: in vivo, Balb/C nude mice; settings: 6 μg/Kg orally every second day, 30 days
Method: as §6, §7

B16-F10 melanoma cells = experiment: [3H]-thymidine incorporation cell proliferation assay; format: cell-based; settings: antagonist 0.01 μM added in the presence of IB-MECA
Method: as §1
[^3H]-thymidine incorporation assay as used to evaluate cell growth. B136-F10 melanom Cella (1.5×10^4/ml) were incubated with IB-MECA (0.0 μM-10 μM) in 96-well microtiter plates for 24 hours. To test whether IB-MECA exerted its effect on tumor cells through binding to A3AR, an antagonist to A3AR, MRS-1523, was added to the cell cultures in the presence of IB-MECA. Cultures of B16-F10 melanoma cells tat were incubated in the presence of MRS-1523 only, served as controls. For the last 6 h of incubation, each well was pulsed with 1 μCi [3H]-thymidine. Cells were harvested and the [^3H]-thyine uptake was determined in an LKB liquid scintillation counter (LKB, Piscataway, N.J., USA). These experiments were repeated at least 10 times.

PKAc = experiment: Western blot of PKAc in B16-F10 melanoma cell extracts; format: cell-based; settings: antagonist 0.01 μM with IB-MECA
Method: as §1, §2, §3

Nc1ncnc2c1nc(Br)n2[C@@H]1O[C@@H]2COP(=O)(O)O[C@H]2[C@H]1O [8Br cAMP]
level of GSK-3β (GSK-3β; 8Br cAMP added to culture to mimic A2AR activation): decrease

CNC(=O)C1OC(n2cnc3c(NCc4cccc(I)c4)nc(Cl)nc32)C(O)C1O (centres unmarked) [Cl-IB-MECA]
p 24 Day 5 (HIV-1 JR-FL): 8.45 pg/mL | hair growth on the skin (hair growth): hair grew | level of c-myc in tumor tissue (c-myc): decrease | level of β-catenin in tumor tissue (β-catenin): decrease | p 24 Day 5 (HIV-1 SF162): 288.77 pg/mL | p 24 Day 10 after infection (HIV-1 SF126; 0.01, HIV control 209.18): 111.05 pg/mL | p 24 Day 5 after infection (HIV-1 SF126; 0.01, HIV control 267.99): 127.03 pg/mL | p 24 Day 10 after infection (HIV-1 SF126; 0.1, HIV control 209.18): 80.37 pg/mL | p 24 Day 5 after infection (HIV-1 SF126; 0.1, HIV control 267.99): 10.81 pg/mL | level of cyclin D1 in tumor tissue (cyclin D1): decrease

CCCOC(=O)c1c(-c2ccccc2)nc(CC)c(C(=O)SCC)c1CCC [MRS-1523]
effect on the inhibitory effect of IB-MECA on melanoma cell growth (B16-F10 melanoma cells): reversed the inhibitory effect of IB-MECA | effect on the IB-MECA induced increase in GSK-3β levels (GSK-3β; antagonist 0.01 μM with IB-MECA): reversed | effect on the IB-MECA induced decrease in PKAc (PKAc): reversed
